Values after ≈ are worked out from the molar mass of the structure shown. Read-outs that look alike come from different tables or passages of the source.
Assays:
Format in all cases: cell-based
[1] = tested on: C. albicans ATCC 90028; assay: Anti-Fungal (Candida) Activity Assay, broth microtiter MIC; settings: ATCC90028, 48 h, 3 replicates, MIC read at 48 h
Experimental: (§1) Compounds of the present invention were evaluated in an Anti-Fungal Activity Assay. An exemplary procedure for the assay, which measures the susceptibility of various Candida species to anti-fungal compounds, follows. Compounds to be tested (including fluconazole and amphotericin B) were dissolved in DMSO to obtain a solution having a concentration of 1 mg/mL. These stock solutions were sterile filtered using a 0.22 um nylon syringe filter, then diluted in sterile water to achieve a final concentration of 128 μg/mL.
(§2) All species were grown from frozen stock by directly plating on to freshly prepared Sabouraud Dextrose agar (BD, Difco) and incubated overnight in ambient air at 35° C. for 24 h. A direct suspension was prepared in RPMI 1640+MOPS (Lonza, Biowhittaker) by taking individual colonies from the overnight cultures using sterile swabs soaked in sterile saline. The concentration of the suspension was determined using pre-determined standard curves. These suspensions were then diluted down to 5×10^3 CFU/mL to achieve a final concentration of 2.5×10^3 CFU/mL once added to the microtiter plate as per CLSI guidelines (M27-A3, Vol. 28 No. 14).
(§3) Broth microtiter MIC challenge plates were prepared following CLSI guidelines (M27-A3, Vol. 28 No. 14). The original CLSI guidelines focused on reading Candida MICs after 48 h of incubation. As reading after only 24 h offers a clear advantage of patient care, QC limits are being established for all drugs at 24 h. That being said there are no known interpretive breakpoints for amphotericin B at 24 h and the current fluconazole interpretive breakpoints are based on a 48 h reading. The MIC for the test compounds were recorded at 48 h. All MIC determinations were achieved by visually comparing the growth found in the antibiotic challenged wells to that of the growth control.

[2] = tested on: C. parapsilosis ATCC 22019; assay: as above; settings: Lodderomyces parapsilosis, ATCC22019, 48 h, 3 replicates, MIC read at 48 h
Experimental: as §1, §2, §3

[3] = tested on: Diplodia maydis (Dm); assay: Growth inhibition assay of fungal pathogens; settings: Stenocarpella maydis, 48 h, read-out: Concentration at 90% Inhibition Dm
Experimental: (§4) Compounds of the present invention were evaluated in a growth inhibition assay to determine the ability to control the growth of fungal pathogens, such as Botrtyis cinerea (Bc), Collectotrichum graminicola (Cg), Diplodia maydis (Dm), Fusarium moniliforme (Fm), Fusarium virguhforme (Fv), Phytophthora capsici (Pc), Rhizoctonia solani (Rs), and Septoria tritici (St). Compounds to be tested were dissolved in DMSO at 2.5 mg/ml to produce compound stock solutions (“stocks”). Stocks were diluted with DMSO by a five-fold dilution in a 96-well stock plate, and two sets of final concentrations of 50, 10, and 2 ppm or 2, 0.4, and 0.08 ppm were obtained in vitro. A set of positive controls was also prepared, with various concentrations of Soraphen (2, 0.4, and 0.08 ppm), Metalaxyl (1.1, 0.22, and 0.04 ppm), and Metconazole (2, 0.4, and 0.08 ppm or 0.2, 0.04, and 0.008 ppm) after the five-fold dilutions. Negative controls on each plate included 2% DMSO, water, and a blank (media+2% DMSO). Fungal spores were isolated from previously sub-cultured plates of Botrtyis cinerea (Bc), Collectotrichum graminicola (Cg), Diplodia maydis (Dm), Fusarium moniliforme (Fm), Fusarium virguliforme (Fv), Phytophthora capsici (Pc), and Septoria tritici (St). The isolated spores were diluted to individual concentrations with a 17% V8 liquid media. For Rhizoctonia solani (Rs) and Pythium irregulare, 1.5 mm mycelial plugs were used in place of spores and ¼ Potato Dextrose Broth (PDB) was used for dilution. The spore concentrations and plug sizes were based on growth curves generated at 48 hours for each pathogen. In a second 96-well plate, the spores or mycelial plugs, media, diluted compound solutions, and controls were combined. Once the compound was added, a true final concentration of compound in each well was measured by an OD600 reading, which adjusted for any compound precipitation that might have occurred in the well. Plate readings were repeated at both 24 and 48 hours. The blank negative control was used as a background subtraction. Additional visual ratings were performed at both 24 and 48 hours for checking on precipitation and confirming efficacy. Visual and OD600 ratings of the compounds at 48 hours were compared to the 2% DMSO negative control, and the percent of pathogen growth inhibition was determined based on those values.

[4] = tested on: Septoria tritici (St); assay: Growth inhibition assay of fungal pathogens; settings: Zymoseptoria tritici, 48 h, read-out: Concentration at 90% Inhibition St
Experimental: as §4

[5] = tested on: Fusarium moniliforme (Fm); assay: Growth inhibition assay of fungal pathogens; settings: Fusarium verticillioides, 48 h, read-out: Concentration at 90% Inhibition Fm
Experimental: as §4

[6] = tested on: Fusarium virguliforme (Fv); assay: Growth inhibition assay of fungal pathogens; settings: 48 h, read-out: Concentration at 90% Inhibition Fv
Experimental: as §4

[7] = tested on: Rhizoctonia solani (Rs); assay: Growth inhibition assay of fungal pathogens; settings: 48 h, read-out: Concentration at 90% Inhibition Rs
Experimental: as §4

[8] = tested on: Phytophthora capsici (Pc); assay: Growth inhibition assay of fungal pathogens; settings: 48 h, read-out: Concentration at 90% Inhibition Pc
Experimental: as §4

[9] = tested on: Botrtyis cinerea (Bc); assay: Growth inhibition assay of fungal pathogens; settings: 48 h, read-out: Concentration at 90% Inhibition Bc
Experimental: as §4

[10] = tested on: Collectotrichum graminicola (Cg); assay: Growth inhibition assay of fungal pathogens; settings: 48 h, read-out: Concentration at 90% Inhibition Cg
Experimental: as §4

Structure (SMILES)	MIC ([1]; Table 3a) [µg/mL]	MIC ([1]; Table 3b (additional results)) [µg/mL]	MIC ([2]; Table 3a) [µg/mL]	MIC ([2]; Table 3b (additional results)) [µg/mL]	IC90 ([3]; Table 4a) [µg/mL]	IC90 ([3]; Table 4b) [µg/mL]	IC90 ([4]; Table 4a) [µg/mL]	IC90 ([4]; Table 4b) [µg/mL]	IC90 ([5]; Table 4a) [µg/mL]	IC90 ([5]; Table 4b) [µg/mL]	IC90 ([6]; Table 4a) [µg/mL]	IC90 ([6]; Table 4b) [µg/mL]	IC90 ([7]; Table 4a) [µg/mL]	IC90 ([7]; Table 4b) [µg/mL]	IC90 ([8]; Table 4a) [µg/mL]	IC90 ([8]; Table 4b) [µg/mL]	IC90 ([9]; Table 4a) [µg/mL]	IC90 ([9]; Table 4b) [µg/mL]	IC90 ([10]; Table 4a) [µg/mL]	IC90 ([10]; Table 4b) [µg/mL]
CCOC(=O)c1sc2c(c1C)c(=O)n(C(C)(C)C(=O)N1CCCC1)c(=O)n2C[C@H](OC(C)C)c1ccccc1OC [Compound I-7, (R)-ethyl 1-(2-isopropoxy-2-(2-methoxyphenyl)ethyl)-5-methyl-3-(2-methyl-1-oxo-1-(pyrrolidin-1-yl)propan-2-yl)-2,4-dioxo-1,2,3,4-tetrahydrothieno[2,3-d]pyrimidine-6-carboxylate]	2.1 to 4 (≈ 3.59 to 6.83 µM)	2.1 to 4 (≈ 3.59 to 6.83 µM)	2.1 to 4 (≈ 3.59 to 6.83 µM)	2.1 to 4 (≈ 3.59 to 6.83 µM)	0.4 (≈ 0.683 µM)	0.4 (≈ 0.683 µM)	10 (≈ 17.1 µM)	2 (≈ 3.41 µM)	0.08 (≈ 0.137 µM)	0.08 (≈ 0.137 µM)	0.4 (≈ 0.683 µM)	0.4 (≈ 0.683 µM)	0.08 (≈ 0.137 µM)	0.08 (≈ 0.137 µM)	≥ 50	≥ 50	0.4 (≈ 0.683 µM)	0.4 (≈ 0.683 µM)	0.4 (≈ 0.683 µM)	0.4 (≈ 0.683 µM)
CCOC(=O)c1sc2c(c1C)c(=O)n(C(C)(C)C(=O)NC(C)C)c(=O)n2C[C@H](OC1CCOCC1)c1ccccc1OC [Compound I-8, (R)-ethyl 3-(1-(isopropylamino)-2-methyl-1-oxopropan-2-yl)-1-(2-(2-methoxyphenyl)-2-((tetrahydro-2H-pyran-4-yl)oxy)ethyl)-5-methyl-2,4-dioxo-1,2,3,4-tetrahydrothieno[2,3-d]pyrimidine-6-carboxylate]	1.1 to 2 (≈ 1.79 to 3.25 µM)	1.1 to 2 (≈ 1.79 to 3.25 µM)	1.1 to 2 (≈ 1.79 to 3.25 µM)	2.1 to 4 (≈ 3.41 to 6.5 µM)	2 (≈ 3.25 µM)	2 (≈ 3.25 µM)	≥ 50	≥ 50	0.08 (≈ 0.13 µM)	0.08 (≈ 0.13 µM)	2 (≈ 3.25 µM)	2 (≈ 3.25 µM)	≥ 50	10 (≈ 16.2 µM)	≥ 50	≥ 50	0.4 (≈ 0.65 µM)	0.4 (≈ 0.65 µM)	2 (≈ 3.25 µM)	2 (≈ 3.25 µM)
CCOC(=O)c1sc2c(c1C)c(=O)n(C(C)(C)C(=O)NC(C)C)c(=O)n2C[C@H](OC(C)C)c1ccccc1OC [Compound I-9, (R)-ethyl 1-(2-isopropoxy-2-(2-methoxyphenyl)ethyl)-3-(1-(isopropylamino)-2-methyl-1-oxopropan-2-yl)-5-methyl-2,4-dioxo-1,2,3,4-tetrahydrothieno[2,3-d]pyrimidine-6-carboxylate]	1.1 to 2 (≈ 1.92 to 3.49 µM)	1.1 to 2 (≈ 1.92 to 3.49 µM)	2.1 to 4 (≈ 3.66 to 6.97 µM)	2.1 to 4 (≈ 3.66 to 6.97 µM)	0.4 (≈ 0.697 µM)	0.4 (≈ 0.697 µM)	≥ 50	≥ 50	0.08 (≈ 0.139 µM)	0.08 (≈ 0.139 µM)	0.4 (≈ 0.697 µM)	0.4 (≈ 0.697 µM)	≥ 50	10 (≈ 17.4 µM)	≥ 50	≥ 50	0.4 (≈ 0.697 µM)	0.4 (≈ 0.697 µM)	2 (≈ 3.49 µM)	2 (≈ 3.49 µM)
CCOC(=O)c1sc2c(c1C)c(=O)n(C(C)(C)C(N)=O)c(=O)n2C[C@H](OCCOC)c1cc(F)ccc1OC [Compound I-10, (R)-ethyl 3-(1-amino-2-methyl-1-oxopropan-2-yl)-1-(2-(5-fluoro-2-methoxyphenyl)-2-(2-methoxyethoxy)ethyl)-5-methyl-2,4-dioxo-1,2,3,4-tetrahydrothieno[2,3-d]pyrimidine-6-carboxylate]	> 4.1	2.1 to 4 (≈ 3.71 to 7.07 µM)	> 4.1	2.1 to 4 (≈ 3.71 to 7.07 µM)	≥ 50	≥ 50	≥ 50	≥ 50	≥ 50	10 (≈ 17.7 µM)	≥ 50	≥ 50	≥ 50	≥ 50	≥ 50	≥ 50	≥ 50	≥ 50	≥ 50	≥ 50
CCOC(=O)c1sc2c(c1C)c(=O)n(C(C)(C)C(=O)NC(C)C)c(=O)n2C[C@H](OCCOC)c1cc(F)ccc1OC [Compound I-11, (R)-ethyl 1-(2-(5-fluoro-2-methoxyphenyl)-2-(2-methoxy-ethoxy)ethyl)-3-(1-(isopropylamino)-2-methyl-1-oxopropan-2-yl)-5-methyl-2,4-dioxo-1,2,3,4-tetrahydrothieno[2,3-d]pyrimidine-6-carboxylate]	2.1 to 4 (≈ 3.46 to 6.58 µM)	2.1 to 4 (≈ 3.46 to 6.58 µM)	2.1 to 4 (≈ 3.46 to 6.58 µM)	1.1 to 2 (≈ 1.81 to 3.29 µM)	2 (≈ 3.29 µM)	2 (≈ 3.29 µM)	≥ 50	≥ 50	0.08 (≈ 0.132 µM)	0.08 (≈ 0.132 µM)	0.4 (≈ 0.658 µM)	0.4 (≈ 0.658 µM)	≥ 50	10 (≈ 16.5 µM)	≥ 50	≥ 50	2 (≈ 3.29 µM)	2 (≈ 3.29 µM)	2 (≈ 3.29 µM)	2 (≈ 3.29 µM)

Source: US11098055B2, “Ester ACC inhibitors and uses thereof” (Gilead Apollo, LLC, priority 2015, dated 2021)
